Experimental data taken from US20050153967A1, “Pharmaceutical compositions comprising 2-(4-ethoxy-phenyl)-3-(4-methanesulfonyl-phenyl)-pyrazolo'1,5-bipyridazine in nanoparticulate form” (priority 2002, published 2005).

Key:
[1] = Dissolution testing (in vitro prediction of bioavailability); assay type: physicochemical
Source text: Dissolution testing is a well established technique for obtaining a correlation between in vitro and in vivo data in relation to compound bioavailability. […] As a result attempts were made to improve the bioavailability of compound (I). WO01/41760 (Pharmacia Corporation) discloses that the bioavailability of selective COX-2 inhibitory drugs of low water solubility may be enhanced by reducing the drug particle size, such that a substantial proportion are smaller than 1 μm.

[2] = target: T1, cyclooxygenase-2 (COX-2) (Homo sapiens, UniProt P35354); details: cited from earlier work
T1 sequence (P35354 18-604): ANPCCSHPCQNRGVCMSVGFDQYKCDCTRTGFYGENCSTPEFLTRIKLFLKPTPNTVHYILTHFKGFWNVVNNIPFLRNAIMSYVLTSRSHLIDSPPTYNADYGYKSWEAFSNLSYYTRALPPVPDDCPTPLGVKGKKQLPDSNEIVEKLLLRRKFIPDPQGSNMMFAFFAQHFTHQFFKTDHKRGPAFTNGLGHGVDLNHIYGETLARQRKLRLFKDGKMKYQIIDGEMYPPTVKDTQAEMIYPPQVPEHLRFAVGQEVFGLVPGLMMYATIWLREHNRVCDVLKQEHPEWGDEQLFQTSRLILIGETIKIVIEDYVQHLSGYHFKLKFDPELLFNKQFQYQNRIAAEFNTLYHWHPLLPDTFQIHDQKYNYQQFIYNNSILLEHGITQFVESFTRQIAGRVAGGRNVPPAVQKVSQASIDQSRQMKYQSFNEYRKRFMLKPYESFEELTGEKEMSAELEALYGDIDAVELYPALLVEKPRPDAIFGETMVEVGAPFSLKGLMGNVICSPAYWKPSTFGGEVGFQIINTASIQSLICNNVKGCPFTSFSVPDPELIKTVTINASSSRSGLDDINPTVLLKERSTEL

With `CCOc1ccc(-c2nn3ncccc3c2-c2ccc(S(C)(=O)=O)cc2)cc1` [compound (I), 2-(4-ethoxy-phenyl)-3-(4-methanesulfonyl-phenyl)-pyrazolo[1,5-b]pyridazine] the “dissolution, indicated bioavailability” value ([1]; co-formulation with HPMC-AS in an amorphous dispersion) was “enhanced”, the “dissolution, predicted bioavailability” value ([1]; compound (I) in micronised form, preliminary dissolution experiments) was “poorly bioavailable” and the dissolution profile ([1]; pharmaceutical composition with compound (I) in nanoparticulate form) was “poor dissolution profile”. For the same compound, the “inhibition of cyclooxygenase-2 (COX-2)” value [2] was “potent and selective inhibitor”.
